The results in this text go back to patent US4927958A, “Styryl ketones” (Hoffmann-La Roche Inc., priority 1987, dated 1990).

Series [1] is described as follows: Acute toxicity (single oral administration to mice). As to conditions: mouse, in vivo, read-out: Toxicity LD 50. The text has this:
Representative compounds of formulae I and II have been investigated with respect to their mucosa-protective and gastric acid secretion-inhibiting properties as well as to their toxicity.
(§1) In the following Table there are given for a series of representative compounds of formula I and for two compounds of formula II the results of the testing with respect to their mucosa-protective activity ("ethanol test") and to their gastric acid secretion-inhibiting activity. Moreover, this Table contains data concerning the acute toxicity (LD50 in the case of single oral administration to mice).

For series [2], the system named is ethanol-induced lesions of the mucous membrane of the stomach. Briefly: Ethanol test (mucosa-protective activity). The series is classed as in vivo, male rats. The conditions noted are these: rats; oral, 30 minutes prior to absolute ethanol (1 ml per rat); dosage reducing by 50% the number of lesions vs control; read-out: Ethanol Test ID 50. The protocol: The experimental procedure described hereinafter has been used to determine the mucosa-protective property:
The oral administration of absolute ethanol to male rats in a dosage of 1 ml per rat leads within 1 hour to bloody lesions of the mucous membrane of the stomach. Various dosages of the substances to be tested (suspended in 0.125% carboxymethylcellulose) or of the vehicle alone (control) are administered to the rats orally (1 ml per rat) 30 minutes prior to the treatment with ethanol. One hour after the administration of the ethanol the animals are sacrificed, their stomachs are examined for the presence of lesions, and the number and size of such lesions are mentioned. The ID50 is that dosage of a test substance which reduces by 50% the number of lesions in comparison to the control group.
as §1

The subject of series [3] is gastric acid secretion. Briefly: Gastric acid secretion-inhibiting activity (pylorus ligation, Shay et al.). The series is classed as in vivo, male rats. The conditions noted are these: Rattus norvegicus, 5 h; pylorus-ligated rats; intraduodenal; five hours after ligation; dosage giving 50% decrease of the secretion vs control; read-out: Gastric acid secretion-inhibition ID 50. The protocol:
The test procedure described hereinafter was used to determine the gastric acid secretion-inhibiting activity:
The pylorus of male rats is ligated under slight ether narcosis in accordance with the procedure described by Shay et al. in Gastroenterology 5, 43 (1945). The substances to be tested, suspended in 0.5% carboxymethylcellulose, are administered intraduodenally. Control animals are treated only with the vehicle. Five hours after the ligation the animals are sacrificed, the volume and acidity of their gastric fluid are determined, and the values obtained are compared with those of control animals. The ID50 is that dosage of a test substance which brings about a 50% decrease of the secretion in comparison to the control animals.
as §1

Turning to `COc1cccc(/C=C/C(=O)/C=C/C(=O)O)c1` [A, (E,E)6-(3-Methoxyphenyl)-4-oxo-2,5-hexadienoic acid], the LD50 in series [1] is 312 to 625 mg/kg. Also, the ED50 in series [2] amounted to 0.8 mg/kg; in series [3], 9 mg/kg.

`COc1ccc(/C=C/C(=O)/C=C/C(=O)O)cc1` [B, (E,E)6-(4-Methoxyphenyl)-4-oxo-2,5-hexadienoic acid]: the LD50 in series [1] fell in the range of 312 to 625 mg/kg. For the same compound, the ED50 in series [2] came out at 0.7 mg/kg.

Take `COC(=O)/C=C\C(=O)/C=C/c1ccc(OC)cc1` [C, Methyl (2Z,5E)6-(4-methoxyphenyl)-4-oxo-2,5-hexadienoate]: the LD50 in series [1] lay within 625 to 1250 mg/kg. The ED50 in series [2] worked out at 1 mg/kg.

Consider `COc1ccc(/C=C/C(=O)C#CC(=O)O)cc1` [D, (E)6-(4-Methoxyphenyl)-4-oxo-5-hexen-2-ynoic acid], for which, in series [1], the LD50 is 500 to 1000 mg/kg. Moreover, in series [2], the ED50 came to 0.5 mg/kg.

With `O=C(O)/C=C/C(=O)/C=C/c1ccc(F)cc1` [E, (E,E)6-(4-Fluorophenyl)-4-oxo-2,5-hexadienoic acid], in series [1], the LD50 fell in the range of 312 to 625 mg/kg. Further, in series [2], the ED50 came to 1.9 mg/kg.

Regarding `COc1ccc(/C=C/C(=O)/C=C\C(=O)O)cc1` [F, (2Z,5E)6-(4-Methoxyphenyl)-4-oxo-2,5-hexadienoic acid], in series [1], the LD50 was 156 to 312 mg/kg. Moreover, the ED50 in series [2] stood at 0.7 mg/kg.

Consider `COCCOCCOC(=O)/C=C/C(=O)/C=C/c1cccc(OC)c1` [G, 2(2-Methoxyethoxy)ethyl (E,E)6-(3-methoxyphenyl)-4-oxo-2,5-hexadienoate], for which the LD50 in series [1] lay within 500 to 1000 mg/kg. The ED50 in series [2] is 2.7 mg/kg.

With `COCCOCCOC(=O)C#CC(=O)/C=C/c1ccc(OC)cc1` [H, 2(2-Methoxyethoxy)ethyl (E)6-(4-methoxyphenyl)-4-oxo-5-hexen-2-ynoate], the LD50 in series [1] was 2500 to 5000 mg/kg. Moreover, the ED50 in series [2] worked out at 2.7 mg/kg.

`COC(=O)C#CC(O)/C=C/c1ccc(OC)cc1` (stereo not drawn) [I, Methyl (E)4-hydroxy-6-(4-methoxyphenyl)-5-hexen-2-ynoate]: the LD50 in series [1] lay in the range of 1000 to 2000 mg/kg. Also, in series [2], the ED50 worked out at 2.1 mg/kg.

Take `COCCOCCOC(=O)C#CC(O)/C=C/c1ccc(OC)cc1` (stereo not drawn) [J, 2(2-Methoxyethoxy)ethyl (E)4-hydroxy-6-(4-methoxy-phenyl)-5-hexen-2-ynoate]: the LD50 in series [1] was more than 4000 mg/kg. Also, the ED50 in series [2] is 3.4 mg/kg.
